Where a name gives a salt, the structure may show the parent alone.
Experiments:
[1] = 22.5° C.; cited from earlier work
immobilized albumin = immobilized albumin (Homo sapiens, UniProt P02768); assay: Competition of added albumin with binding of fluorescent paclitaxel to immobilized albumin; details: similar effect with binding to endothelial cells
From the text: Albumin was immobilized on a microtiter plate. […] Thus invention compositions having lower amounts of albumin are preferred.

[2] = cited from earlier work

Chain of immobilized albumin (P02768 25-609): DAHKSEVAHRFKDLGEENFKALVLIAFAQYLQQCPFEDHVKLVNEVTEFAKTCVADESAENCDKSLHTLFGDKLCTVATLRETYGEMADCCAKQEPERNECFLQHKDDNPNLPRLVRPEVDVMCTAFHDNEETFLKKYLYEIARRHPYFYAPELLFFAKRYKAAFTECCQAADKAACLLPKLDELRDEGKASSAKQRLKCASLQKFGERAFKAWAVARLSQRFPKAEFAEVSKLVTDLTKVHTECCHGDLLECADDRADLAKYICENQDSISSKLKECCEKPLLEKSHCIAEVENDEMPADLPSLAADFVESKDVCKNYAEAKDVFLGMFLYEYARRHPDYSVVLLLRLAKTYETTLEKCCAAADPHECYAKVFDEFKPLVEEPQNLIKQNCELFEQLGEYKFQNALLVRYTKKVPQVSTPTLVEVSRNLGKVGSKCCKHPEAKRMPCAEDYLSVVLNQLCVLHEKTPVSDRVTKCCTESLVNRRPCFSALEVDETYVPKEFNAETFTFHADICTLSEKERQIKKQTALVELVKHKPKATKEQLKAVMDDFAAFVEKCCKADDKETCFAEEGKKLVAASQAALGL

## CC(C)c1cccc(C(C)C)c1O [propofol, 2,6-diisopropylphenol]
[1]
  maximum solubility in water: 1.0 ± 0.02 µM

## albumin
Immobilized albumin
  binding of fluorescent paclitaxel to immobilized albumin as added albumin increased: a corresponding decrease in binding

## CC(=O)N(O)CCCCCNC(=O)CCC(=O)N(O)CCCCCNC(=O)CCC(=O)N(O)CCCCCN [Deferoxamine mesylate USP, N-[5-[3-[(5-aminopentyl)-hydroxycarbamoyl]-propion-amido]pentyl]-3[[5-((N-hydroxyacetamido)pentyl]-carbamoyl]propionohydroxamic acid monomethanesulfonate (salt)]
[2]
  solubility in water: freely soluble in water

Source: patent US9012518B2, “Compositions and methods of delivery of pharmacological agents” (Abraxis BioScience, LLC, priority 2002, dated 2015)
